Assay results reported in publication PMC5218480 (PLoS ONE, 2017).

System: MV-4-11 cells
Test: Gene expression microarray analysis (Affymetrix PrimeView) and GSEA
Type: cell-based, human
Parameters: RFU PODN (11730768_x_at) / Fold change /veh PODN (11730768_x_at) / RFU LINC00158 (11744669_a_at) / Fold change /veh LINC00158 (11744669_a_at) / RFU DUSP10 (11751237_a_at) / Fold change /veh DUSP10 (11751237_a_at) / RFU ID3 (11757404_x_at) / Fold change /veh ID3 (11757404_x_at) / RFU PLEKHG5 (11737974_s_at) / Fold change /veh PLEKHG5 (11737974_s_at) / RFU LRRC4B (11730491_at) / Fold change /veh LRRC4B (11730491_at) / RFU GIMAP4 (11747438_a_at) / Fold change /veh GIMAP4 (11747438_a_at) / RFU KRT8 (11758183_x_at) / Fold change /veh KRT8 (11758183_x_at) / RFU CNN1 (11734310_a_at) / Fold change /veh CNN1 (11734310_a_at) / RFU VPS37D (11726825_at) / Fold change /veh VPS37D (11726825_at) / RFU C10orf10 (11716522_x_at) / Fold change /veh C10orf10 (11716522_x_at) / RFU KIR2DL2 /// KIR2DL4 /// KIR2DL5A /// KIR2DL5B /// KIR2DS1 /// KIR2DS2 /// KIR2DS3 /// KIR2DS4 /// KIR3DL3 /// KIR3DL3 /// KIR3DS1 (11738374_at) / Fold change /veh KIR2DL2 /// KIR2DL4 /// KIR2DL5A /// KIR2DL5B /// KIR2DS1 /// KIR2DS2 /// KIR2DS3 /// KIR2DS4 /// KIR3DL3 /// KIR3DL3 /// KIR3DS1 (11738374_at) / RFU C1QL1 (11718748_at) / Fold change /veh C1QL1 (11718748_at) / RFU TMPRSS4 (11747572_a_at) / Fold change /veh TMPRSS4 (11747572_a_at) / RFU HAMP (11756126_x_at) / Fold change /veh HAMP (11756126_x_at) / RFU RNFT2 (11725882_a_at) / Fold change /veh RNFT2 (11725882_a_at) / RFU NR4A2 (11747474_a_at) / Fold change /veh NR4A2 (11747474_a_at) / RFU ABCC12 (11746883_a_at) / Fold change /veh ABCC12 (11746883_a_at) / RFU TMEM136 (11760407_x_at) / Fold change /veh TMEM136 (11760407_x_at) / RFU CLDN22 /// WWC2 (11732394_at) / Fold change /veh CLDN22 /// WWC2 (11732394_at) / RFU HLA-DPB1 (11760878_x_at) / Fold change /veh HLA-DPB1 (11760878_x_at) / RFU SPINT1 (11716480_a_at) / Fold change /veh SPINT1 (11716480_a_at) / RFU GAP43 (11754022_s_at) / Fold change /veh GAP43 (11754022_s_at) / RFU A4GNT (11735810_at) / Fold change /veh A4GNT (11735810_at) / RFU PRB3 (11715151_x_at) / Fold change /veh PRB3 (11715151_x_at) / RFU TUBB4B (11761932_at) / Fold change /veh TUBB4B (11761932_at) / RFU CAPN14 (11732068_a_at) / Fold change /veh CAPN14 (11732068_a_at) / RFU TMCC2 (11721928_a_at) / Fold change /veh TMCC2 (11721928_a_at) / RFU IRGQ (11745062_a_at) / Fold change /veh IRGQ (11745062_a_at) / RFU FAM174B (11720279_a_at) / Fold change /veh FAM174B (11720279_a_at) / RFU TMPRSS4 (11748680_a_at) / Fold change /veh TMPRSS4 (11748680_a_at) / RFU FAM212B (11763350_a_at) / Fold change /veh FAM212B (11763350_a_at) / RFU PLEKHG5 (11743358_a_at) / Fold change /veh PLEKHG5 (11743358_a_at) / RFU ZSCAN30 (11745921_a_at) / Fold change /veh ZSCAN30 (11745921_a_at) / RFU CMKLR1 (11741424_a_at) / Fold change /veh CMKLR1 (11741424_a_at) / RFU LOC101060620 /// MAPK8IP1 (11723275_at) / Fold change /veh LOC101060620 /// MAPK8IP1 (11723275_at) / RFU SPTSSB (11747773_x_at) / Fold change /veh SPTSSB (11747773_x_at) / RFU PRSS12 (11739890_at) / Fold change /veh PRSS12 (11739890_at) / RFU BIN1 (11741810_x_at) / Fold change /veh BIN1 (11741810_x_at) / RFU WNT11 (11732464_a_at) / Fold change /veh WNT11 (11732464_a_at) / RFU C10orf10 (11716521_a_at) / Fold change /veh C10orf10 (11716521_a_at) / RFU C5orf56 (11738089_at) / Fold change /veh C5orf56 (11738089_at) / RFU CYB561 (11721691_x_at) / Fold change /veh CYB561 (11721691_x_at) / RFU ANKRD19P (11752326_a_at) / Fold change /veh ANKRD19P (11752326_a_at) / RFU OR2T12 /// OR2T33 /// OR2T8 (11738714_s_at) / Fold change /veh OR2T12 /// OR2T33 /// OR2T8 (11738714_s_at) / RFU VCAN (11748164_a_at) / Fold change /veh VCAN (11748164_a_at) / RFU JSRP1 (11732532_at) / Fold change /veh JSRP1 (11732532_at) / RFU KRTAP10-11 (11738290_x_at) / Fold change /veh KRTAP10-11 (11738290_x_at) / RFU MYO3A (11730013_a_at) / Fold change /veh MYO3A (11730013_a_at) / RFU EBF3 (11725865_a_at) / Fold change /veh EBF3 (11725865_a_at) / RFU CAMK2N1 (11719241_x_at) / Fold change /veh CAMK2N1 (11719241_x_at) / RFU C5orf56 (11738088_a_at) / Fold change /veh C5orf56 (11738088_a_at) / RFU OLFML3 (11715873_a_at) / Fold change /veh OLFML3 (11715873_a_at) / RFU LOC100653217 /// NTM (11731650_a_at) / Fold change /veh LOC100653217 /// NTM (11731650_a_at) / RFU MAPK11 (11762145_a_at) / Fold change /veh MAPK11 (11762145_a_at) / RFU FIZ1 (11724087_x_at) / Fold change /veh FIZ1 (11724087_x_at) / RFU OASL (11726364_x_at) / Fold change /veh OASL (11726364_x_at) / RFU SOX15 (11748057_x_at) / Fold change /veh SOX15 (11748057_x_at) / RFU CD79A (11719716_a_at) / Fold change /veh CD79A (11719716_a_at) / RFU HIST1H1D (11736915_at) / Fold change /veh HIST1H1D (11736915_at) / RFU CASKIN2 (11723855_a_at) / Fold change /veh CASKIN2 (11723855_a_at) / RFU LOC730098 (11760151_x_at) / Fold change /veh LOC730098 (11760151_x_at) / RFU OR4N2 (11742367_at) / Fold change /veh OR4N2 (11742367_at) / RFU PRRT2 (11749266_a_at) / Fold change /veh PRRT2 (11749266_a_at) / RFU SNX32 (11753110_a_at) / Fold change /veh SNX32 (11753110_a_at) / RFU CDHR5 (11726645_a_at) / Fold change /veh CDHR5 (11726645_a_at) / RFU RCAN1 (11760418_a_at) / Fold change /veh RCAN1 (11760418_a_at) / RFU FAM167A (11723789_a_at) / Fold change /veh FAM167A (11723789_a_at) / RFU FAM26E (11764081_at) / Fold change /veh FAM26E (11764081_at) / RFU ISYNA1 (11749810_s_at) / Fold change /veh ISYNA1 (11749810_s_at) / RFU ACY1 (11761880_at) / Fold change /veh ACY1 (11761880_at) / RFU 11764098_at / Fold change /veh 11764098_at / RFU SAMD14 (11745864_x_at) / Fold change /veh SAMD14 (11745864_x_at) / RFU NPB (11741838_a_at) / Fold change /veh NPB (11741838_a_at) / RFU TMPRSS6 (11731388_a_at) / Fold change /veh TMPRSS6 (11731388_a_at) / RFU KRTAP10-2 (11738614_at) / Fold change /veh KRTAP10-2 (11738614_at) / RFU ARHGAP8 /// PRR5-ARHGAP8 (11727945_x_at) / Fold change /veh ARHGAP8 /// PRR5-ARHGAP8 (11727945_x_at) / RFU KRTAP5-7 /// NADSYN1 (11734609_at) / Fold change /veh KRTAP5-7 /// NADSYN1 (11734609_at) / RFU RASL12 (11751679_a_at) / Fold change /veh RASL12 (11751679_a_at) / RFU CDKN2B (11736163_a_at) / Fold change /veh CDKN2B (11736163_a_at) / RFU PRF1 (11729649_at) / Fold change /veh PRF1 (11729649_at) / RFU, ZNF638 /// ZNF638-IT1 / Fold change vs veh, ZNF638 /// ZNF638-IT1 / RFU, PANK3 / Fold change vs veh, PANK3 / RFU, SH3YL1 / Fold change vs veh, SH3YL1 / RFU, ZEB2 / Fold change vs veh, ZEB2 / RFU, NRIP1 / Fold change vs veh, NRIP1 / RFU, PTTG1IP / Fold change vs veh, PTTG1IP / RFU, CAPN2 / Fold change vs veh, CAPN2 / RFU, MED14 / Fold change vs veh, MED14 / RFU, SNORA58 / Fold change vs veh, SNORA58 / RFU, C1orf63 / Fold change vs veh, C1orf63 / RFU, LRRFIP1 / Fold change vs veh, LRRFIP1 / RFU, NDUFAF7 / Fold change vs veh, NDUFAF7 / RFU, SLC12A2 / Fold change vs veh, SLC12A2 / RFU, IBTK / Fold change vs veh, IBTK / RFU, ESF1 / Fold change vs veh, ESF1 / Fold change vs veh, TMEM50B / RFU, TAOK1 / Fold change vs veh, TAOK1 / RFU, ACBD3 / Fold change vs veh, ACBD3 / RFU, TMA16 / Fold change vs veh, TMA16 / RFU, RWDD3 / Fold change vs veh, RWDD3 / RFU, BCAT1 / Fold change vs veh, BCAT1 / RFU, EDEM3 / Fold change vs veh, EDEM3 / RFU, TMEM33 / Fold change vs veh, TMEM33 / RFU, WDR75 / Fold change vs veh, WDR75 / RFU, AHCTF1 / Fold change vs veh, AHCTF1 / RFU, TFRC / Fold change vs veh, TFRC / RFU, ZDHHC17 / Fold change vs veh, ZDHHC17 / RFU, NOM1 / Fold change vs veh, NOM1 / RFU, ARL8B / Fold change vs veh, ARL8B / RFU, ZBTB11 / Fold change vs veh, ZBTB11 / RFU, TAMM41 / Fold change vs veh, TAMM41 / RFU, KIAA1704 /// LOC100996395 / Fold change vs veh, KIAA1704 /// LOC100996395 / RFU, ING1 / Fold change vs veh, ING1 / RFU, TRMT61B / Fold change vs veh, TRMT61B / RFU, FUBP3 / Fold change vs veh, FUBP3 / RFU, TP53 / Fold change vs veh, TP53 / RFU, TNKS2 / Fold change vs veh, TNKS2 / RFU, ZFP14 / Fold change vs veh, ZFP14 / RFU, ACTR2 / Fold change vs veh, ACTR2 / RFU, PPP3R1 / Fold change vs veh, PPP3R1 / RFU, PIK3R1 / Fold change vs veh, PIK3R1 / RFU, HNRNPA1 / Fold change vs veh, HNRNPA1 / RFU, RNF170 / Fold change vs veh, RNF170 / RFU, ZNF28 / Fold change vs veh, ZNF28 / RFU, RNGTT / Fold change vs veh, RNGTT / RFU, OGT / Fold change vs veh, OGT / RFU, BRD1 / Fold change vs veh, BRD1 / RFU, MARS / Fold change vs veh, MARS / RFU, ZNF655 / Fold change vs veh, ZNF655 / RFU, FAHD1 / Fold change vs veh, FAHD1 / RFU, BDP1 / Fold change vs veh, BDP1 / RFU, LRRCC1 / Fold change vs veh, LRRCC1 / RFU, ARID1A / Fold change vs veh, ARID1A / RFU, ZNF146 / Fold change vs veh, ZNF146 / RFU, ZNF330 / Fold change vs veh, ZNF330 / RFU, GPN3 / Fold change vs veh, GPN3 / RFU, C9orf123 / Fold change vs veh, C9orf123 / RFU, N4BP2L2 / Fold change vs veh, N4BP2L2 / RFU, ARFIP1 / Fold change vs veh, ARFIP1 / RFU, FAM179B / Fold change vs veh, FAM179B / RFU, BCL10 / Fold change vs veh, BCL10 / RFU, UHRF1BP1L / Fold change vs veh, UHRF1BP1L / RFU, BET1 / Fold change vs veh, BET1 / RFU, CNOT2 / Fold change vs veh, CNOT2 / RFU, ZNF268 / Fold change vs veh, ZNF268 / Fold change vs veh, ZNF507 / RFU, DGCR2 / Fold change vs veh, DGCR2 / RFU, WDSUB1 / Fold change vs veh, WDSUB1 / Fold change vs veh, HSP90B1 /// MIR3652 / RFU, ADSS / Fold change vs veh, ADSS / RFU, GK / Fold change vs veh, GK / RFU, ZNF148 / Fold change vs veh, ZNF148 / RFU, TAF9 / Fold change vs veh, TAF9 / RFU, SLC1A5 / Fold change vs veh, SLC1A5 / RFU, SLMO2 / Fold change vs veh, SLMO2 / RFU, ABCC4 / Fold change vs veh, ABCC4 / RFU, LOC101060439 /// RAP1B / Fold change vs veh, LOC101060439 /// RAP1B / RFU, RFX7 / Fold change vs veh, RFX7 / RFU, GTPBP10 / Fold change vs veh, GTPBP10 / RFU, CNEP1R1 / Fold change vs veh, CNEP1R1 / RFU, BIVM-ERCC5 /// ERCC5 / Fold change vs veh, BIVM-ERCC5 /// ERCC5 / RFU, ILF3 / Fold change vs veh, ILF3 / RFU 11762660_at / Fold change /veh 11762660_at / RFU VCAN (11757783_s_at) / Fold change /veh VCAN (11757783_s_at) / RFU DDX43 (11728927_at) / Fold change /veh DDX43 (11728927_at) / RFU KRT8 (11758188_x_at) / Fold change /veh KRT8 (11758188_x_at) / RFU NKD1 (11759106_at) / Fold change /veh NKD1 (11759106_at) / RFU SRD5A1 (11742802_a_at) / Fold change /veh SRD5A1 (11742802_a_at) / RFU TPSAB1 /// TPSB2 (11721975_s_at) / Fold change /veh TPSAB1 /// TPSB2 (11721975_s_at) / RFU GSTM3 (11746129_a_at) / Fold change /veh GSTM3 (11746129_a_at) / RFU IL23R (11737362_x_at) / Fold change /veh IL23R (11737362_x_at) / RFU TMEM51 (11727254_a_at) / Fold change /veh TMEM51 (11727254_a_at) / RFU PIWIL2 (11732686_x_at) / Fold change /veh PIWIL2 (11732686_x_at) / RFU ORM1 (11744905_x_at) / Fold change /veh ORM1 (11744905_x_at) / RFU CCDC152 (11743942_at) / Fold change /veh CCDC152 (11743942_at) / RFU ECM1 (11717891_a_at) / Fold change /veh ECM1 (11717891_a_at) / RFU IL23R (11748794_a_at) / Fold change /veh IL23R (11748794_a_at) / RFU TNFAIP8L3 (11732012_x_at) / Fold change /veh TNFAIP8L3 (11732012_x_at) / RFU MBOAT4 (11741988_at) / Fold change /veh MBOAT4 (11741988_at) / RFU 11764193_at / Fold change /veh 11764193_at / RFU TMEM53 (11763286_at) / Fold change /veh TMEM53 (11763286_at) / RFU MAGEB2 (11727129_at) / Fold change /veh MAGEB2 (11727129_at) / RFU TMEM200A (11744735_a_at) / Fold change /veh TMEM200A (11744735_a_at) / RFU CCDC152 (11751479_a_at) / Fold change /veh CCDC152 (11751479_a_at) / RFU FAM211A (11726209_a_at) / Fold change /veh FAM211A (11726209_a_at) / RFU RGS16 (11746705_a_at) / Fold change /veh RGS16 (11746705_a_at) / RFU VCAN (11755009_s_at) / Fold change /veh VCAN (11755009_s_at) / RFU RHOB (11743442_s_at) / Fold change /veh RHOB (11743442_s_at) / RFU RGS16 (11720943_a_at) / Fold change /veh RGS16 (11720943_a_at) / RFU RGS16 (11720944_at) / Fold change /veh RGS16 (11720944_at) / RFU, VPS4B / Fold change vs veh, VPS4B / RFU, CREB1 / Fold change vs veh, CREB1 / RFU, DNAJC13 / Fold change vs veh, DNAJC13 / RFU, GNAQ / Fold change vs veh, GNAQ / RFU, CDK5R1 / Fold change vs veh, CDK5R1 / RFU, ZRANB3 / Fold change vs veh, ZRANB3 / RFU, CUL4A / Fold change vs veh, CUL4A / RFU, CCNY / Fold change vs veh, CCNY / RFU, UFL1 / Fold change vs veh, UFL1 / RFU, COG3 / Fold change vs veh, COG3 / RFU, DIAPH2 / Fold change vs veh, DIAPH2 / RFU, SKA2 / Fold change vs veh, SKA2 / RFU, AFF3 / Fold change vs veh, AFF3 / RFU, LMF1 / Fold change vs veh, LMF1 / RFU, IPO11 / Fold change vs veh, IPO11 / RFU, DFFB / Fold change vs veh, DFFB / RFU, FOXP1 / Fold change vs veh, FOXP1 / RFU, CARD8 / Fold change vs veh, CARD8 / RFU, STRN3 / Fold change vs veh, STRN3 / RFU, ADK / Fold change vs veh, ADK / RFU, RASSF2 / Fold change vs veh, RASSF2 / RFU, WIPF1 / Fold change vs veh, WIPF1 / RFU, LARP1B / Fold change vs veh, LARP1B / RFU, RASA1 / Fold change vs veh, RASA1 / RFU, RB1 / Fold change vs veh, RB1 / RFU, PPFIA1 / Fold change vs veh, PPFIA1 / RFU, MAT2A / Fold change vs veh, MAT2A / RFU, CCT5 / Fold change vs veh, CCT5 / RFU, WDR92 / Fold change vs veh, WDR92 / RFU, CUX1 / Fold change vs veh, CUX1 / RFU, TTC7A / Fold change vs veh, TTC7A / RFU, TMEM135 / Fold change vs veh, TMEM135 / RFU, DEPTOR / Fold change vs veh, DEPTOR / RFU, CPM / Fold change vs veh, CPM / RFU, DNAJB6 / Fold change vs veh, DNAJB6 / RFU, CACNA2D3 / Fold change vs veh, CACNA2D3 / RFU, DTX4 / Fold change vs veh, DTX4 / RFU, TFCP2 / Fold change vs veh, TFCP2 / RFU, GMCL1 /// GMCL1P1 / Fold change vs veh, GMCL1 /// GMCL1P1 / RFU, AEBP2 / Fold change vs veh, AEBP2 / RFU, SNHG1 /// SNORD22 /// SNORD25 /// SNORD26 /// SNORD27 /// SNORD28 /// SNORD29 /// SNORD31 / Fold change vs veh, SNHG1 /// SNORD22 /// SNORD25 /// SNORD26 /// SNORD27 /// SNORD28 /// SNORD29 /// SNORD31 / Fold change (Aza/veh), C12orf56 (ProbeSet 11735607_a_at) / Fold change (ACY-1035/veh), C12orf56 (ProbeSet 11735607_a_at) / Fold change (Aza/veh), FGFR1OP (ProbeSet 11751329_s_at) / Fold change (ACY-1035/veh), FGFR1OP (ProbeSet 11751329_s_at) / Fold change (Aza/veh), VPS36 (ProbeSet 11739960_a_at) / Fold change (ACY-1035/veh), VPS36 (ProbeSet 11739960_a_at) / RFU SYPL1 (11715823_x_at) / Fold change /veh SYPL1 (11715823_x_at) / RFU IGFBP7 (11715501_s_at) / Fold change /veh IGFBP7 (11715501_s_at) / RFU REEP3 (11722064_at) / Fold change /veh REEP3 (11722064_at) / RFU IGLL1 (11728026_x_at) / Fold change /veh IGLL1 (11728026_x_at): dose or concentration left out as unconfirmed
Conditions: MV-4-11 cells, 48 hours

Structure (SMILES): Nc1ncn([C@@H]2O[C@H](CO)[C@@H](O)[C@H]2O)c(=O)n1 [azacitidine]
- Fold change /veh TMEM136 (11760407_x_at): 1.19
